Measurements published in US20230227477A1, “COMPOUNDS FOR SENSING REACTIVE OXYGEN SPECIES AND METHODS FOR USING THE SAME” (WAKE FOREST UNIVERSITY HEALTH SCIENCES, priority 2020, published 2023).

Assays:
[1] = Persulfide release from compounds 4a and 4b with H2O2 monitored by fluorescence; type: physicochemical; settings: 20 μM compound; for change of relative fluorescence intensity over time with H2O2 (in words): 200 μM H2O2, PBS pH 7.4, 37° C., 3 hours
Experimental: Referring to FIGS. 6A and 6B, compounds 4a and 4b (20 μM) were exposed to H2O2 (200 μM) in PBS buffer (pH 7.4) at 37° C. and the resulting fluorescence intensity was monitored over a period of 3 hours. Immediately prior to use, a 200 μM stock solutions of compound 4a and compound 4b were prepared in cell-grade dimethylsulfoxide (DMSO), and a 200 μM stock of cetyltrimethylammonium bromide (CTAB) was prepared in PBS buffer (pH 7.4). Next, a 2 mM hydrogen peroxide stock solution was prepared by diluting 30% hydrogen peroxide in freshly degassed PBS Buffer (pH 7.4). 30 μL of compound 4a (or compound 4b) was then added to a 96 well plate and diluted with 90 μL of PBS buffer and 150 μL of the CTAB stock solution. The assay was then initiated by the addition of 30 μL, of the 2 mM hydrogen peroxide stock solution rendering a final concentration of 20 μM for compound 4a (or compound 4b), 200 μM of hydrogen peroxide, and 100 μM of CTAB. The control reactions without peroxide were conducted by adding 30 μL of the 200 μM stock of compound 4a to a 96 well plate and diluting with 120 μL of PBS buffer and 150 μL of 200 μM CTAB to make a final concentration of 20 μM of compound 4a and 100 μM of CTAB. The plate was inserted into a 96-well plate reader (BioTek SYNERGY-HTX multi-mode reader, Winooski, Vt.) heated to 37° C., and agitated to ensure homogeneity. The plate was read continuously using a 360/40 nm fluorescence filter and values were recorded as the mean+/−STDEV from three experiments.

[2] = Rate of coumarin release from compound 1a with H2O2 (fluorescence, plate reader); type: physicochemical; settings: 20 μM compound 1a, 1000 μM H2O2, PBS pH 7.4, 37° C.
Experimental: Referring to FIG. 2A, initially appending a coumarin ester to the H2O2-responsive scaffold of compound 1a, it was hypothesized that the release of payload, in response to H2O2, could be monitored via fluorescence spectroscopy while recording the resulting increase in fluorescence intensity upon excitation at 7-hydroxycoumarin's λmax. Therefore, to initially assess the reactivity of the scaffold towards peroxides, compound 1a (20 μM) and H2O2 (1000 μM) was incubated in PBS buffer (pH 7.4) at 37° C. Specifically, immediately prior to use, a 5 mM stock solution of hydrogen peroxide was prepared in freshly degassed 1× PBS buffer (pH 7.4) using reagent grade H2O2 (30% solution). A 200 μM stock solution of probe compound 1a was prepared in 200-proof ethanol. The rate of coumarin release was measured using concentrations of 20 μM compound 1a and 1000 μM H2O2 by adding 30 μL of the probe stock solution, 60 μL of hydrogen peroxide stock solution and 210 μL of PBS buffer (pH 7.4) to each well of a 96 well plate. The plate was inserted into a 96-well plate reader (BioTek SYNERGY-HTX hybrid multi-mode reader, Winooski, Vt.), heated to 37° C., and agitated to ensure homogeneity. The plate was read continuously using a 360/40 nm fluorescence filter and values were recorded as the mean+/−STDEV from three experiments.
To further establish the proposed mechanistic pathway, lactone compound 3 (see FIG. 2A) was isolated and characterized as a definitive byproduct of this transformation. […] Compound 3 was formed as described below.

[3] = Turn-on fluorescence response of compounds 1a, 1b, 1c in PBS buffer alone and with H2O2; type: physicochemical; settings: for turn-on fluorescence response towards H2O2 (in words) / fluorescence (ex: 330 nm, em: 452 nm), in the presence of 1 mM H2O2 / fluorescence (ex: 330 nm, em: 452 nm), PBS Buffer alone: 20 μM probe; for turn-on fluorescence response towards H2O2 (in words): 1 mM H2O2 vs PBS alone, 3 h; for fluorescence (ex: 330 nm, em: 452 nm), in the presence of 1 mM H2O2 / fluorescence (ex: 330 nm, em: 452 nm), PBS Buffer alone: PBS pH 7.4, 37° C., 180 min; for fluorescence (ex: 330 nm, em: 452 nm), PBS Buffer alone: no H2O2
Experimental: Stock solutions of each probe (compounds 1a, 1b, 1c) at 222.2 μM were prepared in 200-proof ethanol. In addition, a 100 mM hydrogen peroxide stock solution was prepared in freshly degassed 1× PBS buffer (pH 7.4) immediately prior to use. Each reaction vial was prepared using 21.6 mL of PBS buffer, 2160 μL of compound 1a (or compound 1b or 1c) stock solution, and 240 μL of 100 mM hydrogen peroxide stock solution to give final concentrations of 20 μM of compound 1a (or compound 1b or 1c) and 1 mM of hydrogen peroxide. A control sample was prepared using 2160 μL of compound 1a (or 1b or 1c) stock solution in ethanol and diluted with 21.84 mL of freshly degassed 1× PBS buffer to give a final concentration of 20 μM of compound 1a (or 1b or 1c). The reaction and control vials were heated to 37° C. and agitated with a stir bar. At 180 min, 4 mL aliquots were transferred from reaction and control vials to individual quartz cuvettes. Fluorescence measurements (ex: 330 nm, em: 452 nm) were recorded as the mean+/−STDEV from three experiments. Referring to FIG. 3, the results for each of compounds 1a, 1b, and 1c was as follows—(1a): (1) PBS Buffer alone: 3.85+/−0.58; (2) In the presence of 1 mM H2O2: 97.01+/−12.97. (1b): (1) PBS Buffer alone: 0.55+/−0.27; (2) In the presence of 1 mM H2O2: 8.14+/−3.13. (1c): (1) PBS Buffer alone: 102.35+/−0.73; (2) In the presence of 1 mM H2O2: 129.54+/−0.55.

[4] = DNFB trapping of released persulfide, LCMS (validation as ROS-activated persulfide donor); type: physicochemical; settings: 200 μM compound, 1 mM DNFB; for formation of trapped disulfide compound 7 (persulfide release), LCMS: 1 mM H2O2, ammonium bicarbonate buffer, room temperature
Experimental: Initially, 5 mM stock solutions of compound RAH393, compound 5, and 2,4-dinitrofluorobenzene (DNFB) were prepared in 200-proof ethanol. In addition, a 100 mM stock solution of hydrogen peroxide in ammonium bicarbonate buffer (1 mM, pH 7.0) was prepared immediately prior to use. To a conical vial containing 1500 μL of 1M ammonium bicarbonate was then added 80 μL of the 5 mM stock of compound RAH393 (or control compound 5), 400 μL of the 5 mM DNFB stock, and 20 μL of 100 mM hydrogen peroxide giving a final concentrations of 200 μM compound RAH393 (or compound 5), 1 mM DNFB, and 1 mM H2O2. At the designated timepoints, a 100 μL aliquot of the room-temperature reaction was diluted with 900 μL of HPLC-grade methanol with 0.1% formic acid for analysis. 75 μL of the resultant solution was then injected onto C18 reverse phase column (Agilent Technologies, SB-C18 Analytical HPLC Col. 4.6×150) and eluted with HPLC-grade methanol (0.1% formic acid) and HPLC-grade water (0.1% formic acid) at a flow rate of 200 μL/min using the following gradient: 0-2 min, 90:10 water:methanol; 2-8 min, 40:60 water:methanol; 8-30 min, 10:90 water:methanol; 30-40 min, 5:95 water:methanol. Retention times of lactone compound 3 (25.0 min), compound RAH393 (35.6 min), compound 5 (27.7 min), and DNFB (16.5 min) were independently validated. When this assay was run using compound RAH393, in addition to compound 7 (21.7 min), the tri- and tetrasulfides of N-acetylcysteamine were also present (14.1 min and 16.2 min, respectively), further confirming persulfide release from compound RAH393.

HeLa cells [5] = experiment: Cytotoxicity in HeLa cells (phosphatase assay); type: cell-based, human; settings: various concentrations, 5 h incubation
Experimental: First, compound RAH393 and lactone compound 3 were tested for cytotoxicity in HeLa cells. A population of cells (>6×10^6 cells/mL as determined with a hemocytometer) was diluted with FBS-free DMEM:F12-K, 1:1, 1% penicillin-streptomycin, and 1% L-glutamine to give a final concentration of 50,000 cells/mL. To a 96-well plate was added 100 μL of cell media solution resulting in a total of 5 k cells per well. Plates were then incubated at 37° C. in an atmosphere of 5% CO2 and 95% humidified air for 24 h. Fresh culture media (100 μL) was then added to each well of cells resulting in 200 μL of media per well followed by the addition of compound RAH393 or compound 3 at various concentrations (20 mM stock in biological-grade DMSO, resulting in no more than 1% DMSO per well). After incubating for 5 h, a phosphatase assay was used to establish cell viability as follows: Media was removed from each well and replaced with 100 μL of phosphatase solution (100 mg of phosphatase substrate, in 30 mL of 0.1 M NaOAc, pH 5.5, 0.1% Triton X-100 buffer). Following an incubation period of 30 min, 50 μL of 0.10 M NaOH was added to each well and viability was assessed spectrophotometrically at 405 nm using a 96-well plate reader (BioTek SYNERGY-HTX multi-mode reader, Winooski, Vt.). Assays were performed in triplicate and presented as the mean+/−STDEV.

HeLa cells [6] = experiment: Protective effects on HeLa cells under H2O2-induced oxidative stress (CCK-8 viability); type: cell-based, human
Experimental: Next, the protective effects of compound RAH393 on cultured HeLa cells which were under oxidative stress were examined. A population of cells (>6×10^6 cells/mL as determined with a hemocytometer) was diluted with FBS-free DMEM:F12-K, 1:1, 1% penicillin-streptomycin, and 1% L-glutamine to give a final concentration of 50,000 cells/mL. To a 96-well plate was added 100 μL of cell media solution resulting in a total of 5 k cells per well. Plates were then incubated at 37° C. in an atmosphere of 5% CO2 and 95% humidified air for 24 h. Confluent cells were then pre-incubated in FBS-free media with compound RAH393 (or compound 5) (200 μM) for 1 h followed by treatment with H2O2 (200 μM) for an additional 1 h incubation period. Control wells with H2O2 alone (200 μM) were also evaluated on the same plate. After a total incubation period of 2 h, cell contents were then replaced with 100 μL of fresh FBS-free media with 10% CCK-8. Cells were then incubated for 3 h at 37° C. and cell viability was assessed by measuring the resulting absorbance at 450 nm using a 96-well plate reader (BioTek SYNERGY-HTX multi-mode reader, Winooski, Vt.).

For `CC(C)(Cc1ccccc1)C(=O)SSc1ccccc1C(=O)Oc1ccc2ccc(=O)oc2c1` [compound 4b], the “change of relative fluorescence intensity over time with H2O2 (in words)” value [1] was “trivial”.

In the case of `CC(C)(Cc1ccccc1B1OC(C)(C)C(C)(C)O1)C(=O)Oc1ccc2ccc(=O)oc2c1` [compound 1a], the “time at which fluorescence intensity reached a maximum (complete release of coumarin reporter)” value [2] is reported as “roughly 1 h”, the kobs ([2]; pseudo first-order) is reported as 0.024 min⁻¹ and the half-life at 20 μM ([2]; PBS buffer with 1000 μM H2O2, pseudo first-order, read-out: half-life (t1/2) of reaction with H2O2) is reported as 29.3 min. The “turn-on fluorescence response towards H2O2 (in words)” value [3] was “selective turn-on fluorescence response towards H2O2”, the “fluorescence (ex: 330 nm, em: 452 nm), in the presence of 1 mM H2O2” value (from here on “fluorescence … of 1 mM H2O2”) [3] was 97.01+/−12.97 and the “fluorescence (ex: 330 nm, em: 452 nm), PBS Buffer alone” value [3] was 3.85+/−0.58.

For `CC(C)(Cc1ccccc1B1OC(C)(C)C(C)(C)O1)C(=O)SSc1ccccc1C(=O)Oc1ccc2ccc(=O)oc2c1` [compound 4a], the “kobs (pseudo first-order rate constant)” value ([1]; 200 μM H2O2, 100 μM CTAB, PBS pH 7.4, 37° C.) was 0.012 min⁻¹, the “change of relative fluorescence intensity over time with H2O2 (in words)” value [1] was “significantly increase over time” and the “fluorescence profile in PBS buffer alone (in words)” value ([1]; no H2O2, 100 μM CTAB, 37° C.) was “nearly identical fluorescence profile to that of compound 4b”. It also gave a half-life at 20 μM ([1]; PBS buffer with 200 μM H2O2 and 100 μM CTAB, 200 μM H2O2, 100 μM CTAB, PBS pH 7.4, 37° C., pseudo first-order, read-out: half-life of reaction with H2O2 (persulfide release)) of 60.5 min.

In the case of `CC1(C)OB(c2ccccc2CCC(=O)Oc2ccc3ccc(=O)oc3c2)OC1(C)C` [compound 1c], the “fluorescence … of 1 mM H2O2” value [3] is reported as 129.54+/−0.55, the “fluorescence (ex: 330 nm, em: 452 nm), PBS Buffer alone” value [3] is reported as 102.35+/−0.73 and the “susceptibility to hydrolysis (in words)” value ([3]; PBS buffer alone, pH 7.4, 37° C.) is reported as “highly susceptible to hydrolysis”.

In the case of `CC(=O)NCCSSC(=O)C(C)(C)Cc1ccccc1B1OC(C)(C)C(C)(C)O1` [compound RAH393], the “formation of trapped disulfide compound 7 (persulfide release), LCMS” value [4] is reported as “formation of disulfide compound 7 was confirmed”, the “production of lactone compound 3, LCMS (in words)” value ([4]; 1 mM H2O2, over a period of 25 min) is reported as “linear increase in the production of lactone compound 3” and the “cytotoxicity toward HeLa cells (in words)” value (HeLa cells [5]) is reported as “neither compound RAH393 nor lactone compound 3 were toxic”. The “increase in cell viability” value (HeLa cells [6]; pre-treatment 200 μM compound 1 h, then 200 μM H2O2 1 h, vs H2O2 alone) was 100%.

For `CC(C)(Cc1ccccc1)C(=O)Oc1ccc2ccc(=O)oc2c1` [compound 1b], the “turn-on fluorescence response towards H2O2 (in words)” value [3] was “no turn-on response”, the “fluorescence … of 1 mM H2O2” value [3] was 8.14+/−3.13 and the “fluorescence (ex: 330 nm, em: 452 nm), PBS Buffer alone” value [3] was 0.55+/−0.27.

With `CC1(C)Cc2ccccc2OC1=O` [compound 3] the “cytotoxicity toward HeLa cells (in words)” value (HeLa cells [5]) was “neither compound RAH393 nor lactone compound 3 were toxic”.

In the case of `CC(=O)NCCSSC(=O)C(C)(C)Cc1ccccc1` [compound 5], the “formation of trapped disulfide compound 7 (persulfide release), LCMS” value [4] is reported as “unsuccessful in yielding compound 7” and the “protection against H2O2-induced oxidative stress (in words)” value (HeLa cells [6]; pre-treatment 200 μM compound 1 h, then 200 μM H2O2 1 h) is reported as “no protection”.

Molecule `OO` [H2O2, hydrogen peroxide, reference compound] has a cell viability (HeLa cells [6]; 200 μM H2O2 alone, 1 hour) of 33%.
